# Reference: patent publication US8067424B2, “Selective inhibitors for cyclin-dependent kinases” (Emory University, priority 2007, dated 2011)
# Read-outs that look alike come from different tables or passages of the source.
# Legend:
# Assay type in all cases: biochemical
# [1] = biological target: PKA (Homo sapiens, UniProt P17612); assay: Kinase screen: PKA assay
# Protocol: (§1) Generally, the same procedure was used for all assays. Since the total assay volume was 25.5 microliters, 0.5 microliters of inhibitors at 51× assay concentration were added to the plates before any other addition.
# (§2) The basic procedure was to add 0.5 microliters inhibitor/control in DMSO to plate. Fifteen microliters of enzyme/substrate/buffer mix were added and incubated for 5 min. Ten microliters MgATP at the relevant concentration were added and incubated for 30 min. The assay was stopped by adding 5 microliters of 3% orthophosphoric acid. The assay was transferred to a p81 filter plate and read in a scintillation counter of 30 sec/well. Note that this assay procedure was not followed for MKK1, which instead involved a two-step assay, and PKC alpha, which required the addition of lipid vesicles.
# PKA assay: PKA (5-20 mU diluted in 20 mM MOPS pH 7.5, 1 mM EDTA, 0.01% Brij35, 0.1% b-mercaptoethanol, 1 mg/ml BSA) was assayed against Kemptide (LRRASLG) (SEQ ID NO: 6) in a final volume of 25.5 μl containing 8 mM MOPS pH 7.5, 0.2 mM EDTA, 30 μM substrate peptide, 10 mM magnesium acetate and 0.005 mM [33P-g-ATP] (50-1000 cpm/pmole) and incubated for 30 min at room temperature. Assays were stopped by addition of 5 μl of 0.5 M (3%) orthophosphoric acid and then harvested onto P81 Unifilter plates with a wash buffer of 50 mM orthophosphoric acid.
# [2] = biological target: PAK4 (Homo sapiens, UniProt O96013); assay: Kinase screen: PAK4 assay
# PAK4, sequence (O96013 whole entry, species assumed): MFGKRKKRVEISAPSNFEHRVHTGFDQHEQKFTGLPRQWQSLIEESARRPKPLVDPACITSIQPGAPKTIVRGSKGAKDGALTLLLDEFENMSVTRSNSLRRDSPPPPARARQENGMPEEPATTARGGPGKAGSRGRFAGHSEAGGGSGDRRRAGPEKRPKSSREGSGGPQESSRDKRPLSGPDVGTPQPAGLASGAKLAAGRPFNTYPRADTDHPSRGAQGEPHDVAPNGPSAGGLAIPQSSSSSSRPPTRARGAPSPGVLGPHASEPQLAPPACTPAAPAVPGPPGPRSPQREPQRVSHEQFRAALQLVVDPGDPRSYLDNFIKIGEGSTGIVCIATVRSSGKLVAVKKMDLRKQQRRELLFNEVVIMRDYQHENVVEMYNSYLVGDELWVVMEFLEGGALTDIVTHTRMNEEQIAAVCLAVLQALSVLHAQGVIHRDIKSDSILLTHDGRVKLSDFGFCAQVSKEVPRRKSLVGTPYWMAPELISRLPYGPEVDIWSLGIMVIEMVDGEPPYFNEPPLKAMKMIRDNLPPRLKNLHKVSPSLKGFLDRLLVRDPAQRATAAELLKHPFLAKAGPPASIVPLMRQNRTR
# Protocol: as §1, §2
# (§3) PAK4 assay: PAK4 (5-20 mU diluted in 50 mM Tris pH 7.5, 0.1 mM EGTA, 0.1% b-mercaptoethanol, 1 mg/ml BSA) was assayed against a substrate peptide ([…]) (SEQ ID NO: 30) in a final volume of 25.5 μl containing 50 mM Tris pH 7.5, 0.05% b-mercaptoethanol, 300 μM substrate peptide, 10 mM magnesium acetate and 0.005 mM [33P-g-ATP] (50-1000 cpm/pmole) and incubated for 30 min at room temperature. Assays were stopped by addition of 5 μl of 0.5 M (3%) orthophosphoric acid and then harvested onto P81 Unifilter plates with a wash buffer of 50 mM orthophosphoric acid.
# [3] = biological target: IGF-1R (Homo sapiens, UniProt P08069); assay: Kinase screen: IGF-1R assay; conditions: 10 micromolar compound; for remaining activity at 10 µM: read-out: mean activity remaining (as a percentage of the original activity), IGF1-R
# IGF-1R, sequence (P08069 31-1367, species assumed): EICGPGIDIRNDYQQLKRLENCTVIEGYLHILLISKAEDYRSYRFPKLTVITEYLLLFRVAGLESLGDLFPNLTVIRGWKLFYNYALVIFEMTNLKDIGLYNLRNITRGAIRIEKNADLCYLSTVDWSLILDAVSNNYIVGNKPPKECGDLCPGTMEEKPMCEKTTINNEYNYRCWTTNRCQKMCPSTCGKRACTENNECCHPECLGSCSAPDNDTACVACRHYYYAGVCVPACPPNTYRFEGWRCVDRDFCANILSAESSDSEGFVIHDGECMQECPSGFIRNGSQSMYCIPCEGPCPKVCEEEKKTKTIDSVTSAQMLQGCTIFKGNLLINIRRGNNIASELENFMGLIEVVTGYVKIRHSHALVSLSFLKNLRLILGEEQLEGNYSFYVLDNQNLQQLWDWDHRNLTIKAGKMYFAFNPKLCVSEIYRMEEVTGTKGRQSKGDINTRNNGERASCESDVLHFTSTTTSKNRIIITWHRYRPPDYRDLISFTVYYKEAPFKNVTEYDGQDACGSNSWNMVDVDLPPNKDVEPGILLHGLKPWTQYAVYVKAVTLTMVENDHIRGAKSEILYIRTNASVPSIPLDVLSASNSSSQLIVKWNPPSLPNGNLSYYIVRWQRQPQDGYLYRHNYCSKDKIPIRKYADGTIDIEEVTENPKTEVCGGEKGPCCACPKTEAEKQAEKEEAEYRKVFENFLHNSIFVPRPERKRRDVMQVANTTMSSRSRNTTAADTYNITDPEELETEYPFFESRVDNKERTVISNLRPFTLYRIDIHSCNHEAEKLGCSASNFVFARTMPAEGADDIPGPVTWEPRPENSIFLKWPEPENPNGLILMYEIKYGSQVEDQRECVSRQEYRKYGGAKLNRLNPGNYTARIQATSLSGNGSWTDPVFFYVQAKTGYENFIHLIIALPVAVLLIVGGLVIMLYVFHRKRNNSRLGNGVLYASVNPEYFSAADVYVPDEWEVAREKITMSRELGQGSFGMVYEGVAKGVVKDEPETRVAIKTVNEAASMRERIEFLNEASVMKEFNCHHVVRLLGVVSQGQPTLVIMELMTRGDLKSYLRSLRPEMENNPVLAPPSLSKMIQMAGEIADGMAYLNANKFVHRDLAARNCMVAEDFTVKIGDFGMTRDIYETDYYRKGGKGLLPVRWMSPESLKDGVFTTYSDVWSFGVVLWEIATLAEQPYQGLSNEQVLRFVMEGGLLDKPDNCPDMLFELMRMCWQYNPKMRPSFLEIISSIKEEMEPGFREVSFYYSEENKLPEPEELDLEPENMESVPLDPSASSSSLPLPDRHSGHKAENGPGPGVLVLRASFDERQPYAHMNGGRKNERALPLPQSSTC
# Protocol: as §1, §2
# as §3, with “IGF-1R” for “PAK4”, “EGTA,” for “EGTA, 0.1% b-mercaptoethanol,”, “NO:” for “NO: 30)”, “7.5,” for “7.5, 0.05% b-mercaptoethanol,”
# [4] = biological target: T1, NEK2a (Homo sapiens, UniProt P51955); assay: Kinase screen: NEK2a assay
# T1 sequence (P51955 1-445): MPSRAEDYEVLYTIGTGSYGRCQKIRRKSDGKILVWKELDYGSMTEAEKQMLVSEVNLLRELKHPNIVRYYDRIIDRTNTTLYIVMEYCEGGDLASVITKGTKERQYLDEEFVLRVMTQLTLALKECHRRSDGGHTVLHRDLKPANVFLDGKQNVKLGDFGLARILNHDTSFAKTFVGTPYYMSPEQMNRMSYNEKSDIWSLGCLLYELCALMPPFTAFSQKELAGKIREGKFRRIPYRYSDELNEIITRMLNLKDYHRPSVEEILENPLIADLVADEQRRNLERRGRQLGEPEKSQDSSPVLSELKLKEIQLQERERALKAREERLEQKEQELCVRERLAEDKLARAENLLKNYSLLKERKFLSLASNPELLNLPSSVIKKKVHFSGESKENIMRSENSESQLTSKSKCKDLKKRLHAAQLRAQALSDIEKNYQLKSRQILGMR
# Protocol: as §1, §2
# NEK2a assay: 5-20 mU of NEK2a (diluted in 50 mM Tris (pH 7.5), 0.1 mM EGTA, 1 mg/ml BSA, 0.1%, b-Mercaptoethanol) was assayed against NEK2a peptide ([…]) (SEQ ID NO: 19) in a final volume of 25.5 μl containing 50 mM Tris (pH 7.5), 0.1 mM EGTA, 0.01% Brij, 0.1%, b-Mercaptoethanol, 300 μM NEK2a peptide, 10 mM magnesium acetate and 0.05 mM [33P-g-ATP] (500-1000 cpm/pmole) and incubated for 30 mins at room temperature. Assays were stopped by addition of 5 µl of 0.5M (3%) orthophosphoric acid. Assays were harvested onto P81 Unifilter plates using a wash buffer of 50 mM orthophosphoric acid.
# [5] = 10 micromolar compound, read-out: mean activity remaining (as a percentage of the original activity), PKA
# [6] = 10 micromolar compound, read-out: mean activity remaining (as a percentage of the original activity), PAK4
# [7] = 10 micromolar compound, read-out: mean activity remaining (as a percentage of the original activity), NEK 2a
SMILES,"remaining activity at 10 µM [1, 5] [%]","remaining activity at 10 µM [2, 6] [%]",remaining activity at 10 µM [3] [%],"remaining activity at 10 µM [4, 7] [%]",further results
CC[C@H](CO)Nc1cc(NCc2ccccc2)n2ncc(C(C)C)c2n1 [ICEC0067],93,75,63,75,
CC(C)c1cnn2c(NCc3ccccc3F)cc(NCCCCCN)nc12 [ICEC-0232],,,,,"mean activity remaining (as a percentage of the original activity), PKA ([1]; 10 micromolar compound): 96%; mean activity remaining (as a percentage of the original activity), PAK4 ([2]; 10 micromolar compound): 58%; mean activity remaining (as a percentage of the original activity), IGF1-R [3]: 17%; mean activity remaining (as a percentage of the original activity), NEK 2a ([4]; 10 micromolar compound): 83%"
CC(C)c1cnn2c(NCc3ccccc3)cc(NCCCCCCCN)nc12 [BS-181],,,,,"remaining activity at 10 µM ([1]; PKA, 10 μM, read-out: Mean Remaining Enzyme Activity (%)): 110%; remaining activity at 10 µM ([2]; PAK4, 10 μM, read-out: Mean Remaining Enzyme Activity (%)): 75%; remaining activity at 10 µM ([4]; NEK2a, 10 μM, read-out: Mean Remaining Enzyme Activity (%)): 92%"
"CC(C)c1cnn2c(NCc3ccccc3)cc(N[C@@H](CO)[C@H](O)CO)nc12 [ICEC0318, (3S)-3-(7-(Benzylamino)-3-isopropylpyrazolo[1,5-a]pyrimidin-5-ylamino)butane-1,2,4-triol]",93,55,67,102,
C=C[C@H](CO)Nc1cc(NCc2ccccc2)n2ncc(C(C)C)c2n1 [ICEC0065],107,82,63,96,
